# Literature values as cited in publication PMC10694761 (Cell Reports Medicine, 2023).
# Key:
# [1] = micromolar concentrations
# [2] = rats
# [3] = humans
substance,measurement,setting,value
Liraglutide,self-association state,[1],heptameric structures
same,"half-life of absorption from the s.c. space (t1/2, s.c.)",[2],~9.6 min
same,"half-life of elimination from the systemic circulation (t1/2, serum)",[2],~4.01 h
same,"t1/2, serum",[3],~13 h
